This data set deals with CD137 (Homo sapiens, UniProt Q07011). Description: CD137 reporter assay (Promega, Jurkat cells) in co-culture with EphA2-expressing tumor cells (A549, PC3, HT29). Conditions: for Emax (fold induction over background) / fold induction: CD137 reporter coculture assay with PC3 tumor cells; for EC50: EC50, CD137 reporter coculture assay with PC3 tumor cells; for fold induction: read-out: Emax (fold induction over background). Set-up: host or cells: Jurkat reporter cells. Type of data set: cell-based. How it is done: Culture medium, referred to as R1 media, is prepared by adding 1% FBS to RPMI-1640 (component of Promega kit CS196005). Serial dilutions of test articles in R1 are prepared in a sterile 96 well-plate. Add 25 μL per well of test articles or R1 (as a background control) to designated wells in a white cell culture plate. Tumor cells* are harvested and resuspended at a concentration of 400,000 cells/mL in R1 media. Twenty five (25) μL/well of tumor cells are added to the white cell culture plate. Jurkat cells (Promega kit CS196005, 0.5 mL) are thawed in the water bath and then added to 5 ml pre-warmed R1 media. Twenty five (25) μL/well of Jurkat cells are then added to the white cell culture plate. Incubate the cells and test articles for 6 h at 37° C., 5% CO2. At the end of 6 h, add 75 μL/well Bio-Glo™ reagent (Promega) and incubate for 10 min before reading luminescence in a plate reader (Clariostar, BMG). The fold change relative to cells alone (Jurkat cells+Cell line used in co-culture) is calculated and plotted in GraphPad Prism as log(agonist) vs response to determine EC50 (nM) and Fold Induction over background (Max).
Sequence of CD137 (Q07011 24-255): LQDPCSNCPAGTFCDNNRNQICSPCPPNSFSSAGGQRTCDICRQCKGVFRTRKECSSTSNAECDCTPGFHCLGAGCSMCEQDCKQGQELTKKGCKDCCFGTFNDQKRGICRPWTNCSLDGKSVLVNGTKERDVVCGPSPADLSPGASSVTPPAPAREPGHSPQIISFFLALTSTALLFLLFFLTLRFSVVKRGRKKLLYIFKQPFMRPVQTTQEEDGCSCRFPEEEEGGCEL
The tumor cell types used in co-culture for EphA2 are A549, PC3 and HT29. The tumor cell type used in co-culture for PD-L1 is RKO.
A general note: A reporter such as luciferase makes a cellular process visible.

Starred links: 1 amine or outer side, 2 acyl side, 3 side chain; linkers in the order of their positions; H or OH if unused. Positions of bridges follow the written chain, without caps; N, C: chain ends. Non-standard residues stand in square brackets, D forms with d. Chains are numbered I, II in the order given. X4 = O=C(CCOCCOCCOCCOCCOCCn1cc(CCC(=O)[*:2])nn1)NCCCN(CCCNC(=O)CCOCCOCCOCCOCCOCCn1cc(CCC(=O)[*:3])nn1)CC(=O)[*:1]; X1 = O=C(CCOCCOCCOCCN(CCOCCOCCOCCn1cc(CCC(=O)[*:2])nn1)CCOCCOCCOCCn1cc(CCC(=O)[*:3])nn1)[*:1]; X2 = O=C(CCSCCC(=O)[*:1])N1CN(C(=O)CC[*:2])CN(C(=O)CC[*:3])C1; TATA = O=C(CC[*:1])N1CN(C(=O)CC[*:2])CN(C(=O)CC[*:3])C1; Dip = N[C@H](C(=O)O)C(c1ccccc1)c1ccccc1; 1Nal = N[C@@H](Cc1cccc2ccccc12)C(=O)O; d1Nal = N[C@H](Cc1cccc2ccccc12)C(=O)O; Hyp = O=C(O)[C@@H]1C[C@@H](O)CN1; hArg = N=C(N)NCCCC[C@H](N)C(=O)O; tBuAla = CC(C)(C)C[C@H](N)C(=O)O; Aad = N[C@@H](CCCC(=O)O)C(=O)O; Cba = N[C@@H](CC1CCC1)C(=O)O; dNle = CCCC[C@@H](N)C(=O)O; Nle = CCCC[C@H](N)C(=O)O; Mpa = O=C(O)CCS

The term EC50 denotes the concentration needed to bring the measured effect to its halfway point. Low values mean higher potency in that assay, high ones lower potency in that assay.

As for “I: A[hArg]DC[Hyp]LVNPLCLEP[dD]WTC-NH2 / II: [Mpa][tBuAla]EE[dK]PYCFADPY[Nle]C-NH2 / III: [tBuAla]EE[dK]PYCFADPY[Nle]C-NH2 (linker I:4-I:11-I:18, II:1-II:8-II:15 via TATA; linker I:N-II:5-III:4 via X1; linker III:N-III:7-III:14 via X2) [BCY13140]”, the “Emax (fold induction over background)” value came to 46.70 and the EC50 was determined as 0.12 nM.
For “I: A[hArg]DC[Hyp]LVNPLCLEP[dD]WTC-NH2 / II: [Mpa][tBuAla]PE[dK]PYCFADPY[Nle]C-NH2 / III: [tBuAla]PE[dK]PYCFADPY[Nle]C-NH2 (linker I:4-I:11-I:18, II:1-II:8-II:15 via TATA; linker I:N-II:5-III:4 via X1; linker III:N-III:7-III:14 via X2) [BCY13138]”, the fold induction is 32.6 and the midpoint of the response, the EC50, lay at 0.17 nM.
In the case of “I: A[hArg]DC[Hyp]LVNPLCLEP[dD]WTC[dA]-NH2 / II: Ac-C[tBuAla]PE[dK]PYCFADPY[Nle]CA-NH2 / III: Ac-C[tBuAla]PE[dK]PYCFADPY[Nle]CA-NH2 (linker I:4-I:11-I:18, II:1-II:8-II:15, III:1-III:8-III:15 via TATA; linker I:N-II:5-III:5 via X1) [BCY13045]”, the “Emax (fold induction over background)” value was determined as 49.87 and the 50% effective concentration (EC50) turned out to be 0.23 nM.
Turning to “I: A[hArg]DC[Hyp]LVNPLCLEP[dD]W[hArg]C-NH2 / II: Ac-C[tBuAla]PE[dK]PYCFADPY[Nle]CA-NH2 / III: Ac-C[tBuAla]PE[dK]PYCFADPY[Nle]CA-NH2 (linker I:4-I:11-I:18, II:1-II:8-II:15, III:1-III:8-III:15 via TATA; linker I:N-II:5-III:5 via X1) [BCY13042]”, the fold induction was determined as 58.3 and the EC50 worked out at 0.08 nM.
On the same counts, the results for “I: A[hArg]DC[Hyp]LVNPLCLHP[d1Nal]W[hArg]C-NH2 / II: Ac-C[tBuAla]PE[dK]PYCFADPY[Nle]CA-NH2 / III: Ac-C[tBuAla]PE[dK]PYCFADPY[Nle]CA-NH2 (linker I:4-I:11-I:18, II:1-II:8-II:15, III:1-III:8-III:15 via TATA; linker I:N-II:5-III:5 via X1) [BCY13270]” are 42.5 and 0.1 nM.
The corresponding values for “I: A[hArg]DC[Hyp]LVNPLCLHP[dD]WTC-NH2 / II: Ac-C[tBuAla]PE[dK]PYCFADPY[Nle]CA-NH2 / III: Ac-C[tBuAla]PE[dK]PYCFADPY[Nle]CA-NH2 (linker I:4-I:11-I:18, II:1-II:8-II:15, III:1-III:8-III:15 via TATA; linker I:N-II:5-III:5 via X1) [BCY13043]” are 52.7 and 0.11 nM.
For the substance “I: A[hArg]DC[Hyp]LVNPLCLHP[dD]W[hArg]C-NH2 / II: Ac-C[tBuAla]PE[dK]PYCFADPY[Nle]CA-NH2 / III: Ac-C[tBuAla]PE[dK]PYCFADPY[Nle]CA-NH2 (linker I:4-I:11-I:18, II:1-II:8-II:15, III:1-III:8-III:15 via TATA; linker I:N-II:5-III:5 via X4) [BCY12979]”, the “Emax (fold induction over background)” value came to 71.60 and the EC50 is 0.08 nM.
Turning to “I: A[hArg]DC[Hyp]LVNPLCLHP[dD]W[hArg]C-NH2 / II: [Mpa][tBuAla]EE[dK]PYCFADPY[Nle]C-NH2 / III: [tBuAla]EE[dK]PYCFADPY[Nle]C-NH2 (linker I:4-I:11-I:18, II:1-II:8-II:15 via TATA; linker I:N-II:5-III:4 via X1; linker III:N-III:7-III:14 via X2) [BCY13139]”, the “Emax (fold induction over background)” value was 43.75 and the midpoint of the response, the EC50, lay at 0.16 nM.
On to “I: A[hArg]DC[Hyp]LVNPLCLHP[dE]W[hArg]C-NH2 / II: Ac-C[tBuAla]PE[dK]PYCFADPY[Nle]CA-NH2 / III: Ac-C[tBuAla]PE[dK]PYCFADPY[Nle]CA-NH2 (linker I:4-I:11-I:18, II:1-II:8-II:15, III:1-III:8-III:15 via TATA; linker I:N-II:5-III:5 via X1) [BCY12977]”, for which the fold induction was 67.2 and the 50% effective concentration (EC50) turned out to be 0.08 nM.
The corresponding values for “I: A[hArg]DC[Hyp]LVNPLCLHP[dNle]W[hArg]C-NH2 / II: Ac-C[tBuAla]PE[dK]PYCFADPY[Nle]CA-NH2 / III: Ac-C[tBuAla]PE[dK]PYCFADPY[Nle]CA-NH2 (linker I:4-I:11-I:18, II:1-II:8-II:15, III:1-III:8-III:15 via TATA; linker I:N-II:5-III:5 via X1) [BCY13288]” are 43.3 and 0.09 nM.
As to “I: A[hArg]DC[Hyp]LVNPLCL[1Nal]P[dD]W[hArg]C-NH2 / II: Ac-C[tBuAla]PE[dK]PYCFADPY[Nle]CA-NH2 / III: Ac-C[tBuAla]PE[dK]PYCFADPY[Nle]CA-NH2 (linker I:4-I:11-I:18, II:1-II:8-II:15, III:1-III:8-III:15 via TATA; linker I:N-II:5-III:5 via X1) [BCY13271]”, the “Emax (fold induction over background)” value was determined as 44.20 and the concentration giving a half-maximal response (EC50) came to 0.09 nM.
On to “I: A[hArg]DC[Hyp]LVNPLCL[Aad]P[dD]W[hArg]C-NH2 / II: Ac-C[tBuAla]PE[dK]PYCFADPY[Nle]CA-NH2 / III: Ac-C[tBuAla]PE[dK]PYCFADPY[Nle]CA-NH2 (linker I:4-I:11-I:18, II:1-II:8-II:15, III:1-III:8-III:15 via TATA; linker I:N-II:5-III:5 via X1) [BCY13286]”, for which the fold induction amounted to 34.1 and the EC50 was 0.11 nM.
In the case of “I: A[hArg]DC[Hyp]LVNPLCL[Dip]P[dD]W[hArg]C-NH2 / II: Ac-C[tBuAla]PE[dK]PYCFADPY[Nle]CA-NH2 / III: Ac-C[tBuAla]PE[dK]PYCFADPY[Nle]CA-NH2 (linker I:4-I:11-I:18, II:1-II:8-II:15, III:1-III:8-III:15 via TATA; linker I:N-II:5-III:5 via X1) [BCY13054]”, the “Emax (fold induction over background)” value turned out to be 36.53 and the half-maximal effective concentration (EC50) amounted to 0.07 nM.
On to “I: A[hArg]DC[Hyp]LVNPLCL[Nle]P[dD]W[hArg]C-NH2 / II: Ac-C[tBuAla]PE[dK]PYCFADPY[Nle]CA-NH2 / III: Ac-C[tBuAla]PE[dK]PYCFADPY[Nle]CA-NH2 (linker I:4-I:11-I:18, II:1-II:8-II:15, III:1-III:8-III:15 via TATA; linker I:N-II:5-III:5 via X1) [BCY13289]”, for which the fold induction amounted to 45.8 and the EC50 came to 0.08 nM.
With “I: A[hArg]DC[Hyp]LVNPLC[Aad]HP[dD]W[hArg]C-NH2 / II: Ac-C[tBuAla]PE[dK]PYCFADPY[Nle]CA-NH2 / III: Ac-C[tBuAla]PE[dK]PYCFADPY[Nle]CA-NH2 (linker I:4-I:11-I:18, II:1-II:8-II:15, III:1-III:8-III:15 via TATA; linker I:N-II:5-III:5 via X1) [BCY13285]”, the “Emax (fold induction over background)” value is given as 36.53 and a half-maximal response (EC50) required 0.26 nM.
“I: A[hArg]DC[Hyp][Aad]VNPLCLHP[dD]W[hArg]C-NH2 / II: Ac-C[tBuAla]PE[dK]PYCFADPY[Nle]CA-NH2 / III: Ac-C[tBuAla]PE[dK]PYCFADPY[Nle]CA-NH2 (linker I:4-I:11-I:18, II:1-II:8-II:15, III:1-III:8-III:15 via TATA; linker I:N-II:5-III:5 via X1) [BCY13284]”: the fold induction was determined as 34.7 and a half-maximal response (EC50) required 0.25 nM.
As for “I: A[hArg]DC[Hyp][Cba]VNPLCLEP[dD]WTC-NH2 / II: Ac-C[tBuAla]PE[dK]PYCFADPY[Nle]CA-NH2 / III: Ac-C[tBuAla]PE[dK]PYCFADPY[Nle]CA-NH2 (linker I:4-I:11-I:18, II:1-II:8-II:15, III:1-III:8-III:15 via TATA; linker I:N-II:5-III:5 via X1) [BCY13051]”, the “Emax (fold induction over background)” value is given as 37.05 and the EC50 was found to be 0.21 nM.
For “I: A[hArg]EC[Hyp]LVNPLCLHP[dE]W[hArg]C-NH2 / II: Ac-C[tBuAla]PE[dK]PYCFADPY[Nle]CA-NH2 / III: Ac-C[tBuAla]PE[dK]PYCFADPY[Nle]CA-NH2 (linker I:4-I:11-I:18, II:1-II:8-II:15, III:1-III:8-III:15 via TATA; linker I:N-II:5-III:5 via X1) [BCY12978]”, the fold induction was 78.1.
For the substance “I: Ac-A[hArg]DC[Hyp]KVNPLCLHP[dD]W[hArg]C-NH2 / II: Ac-C[tBuAla]PE[dK]PYCFADPY[Nle]CA-NH2 / III: Ac-C[tBuAla]PE[dK]PYCFADPY[Nle]CA-NH2 (linker I:4-I:11-I:18, II:1-II:8-II:15, III:1-III:8-III:15 via TATA; linker I:6-II:5-III:5 via X1) [BCY12975]”, the fold induction amounted to 68.8 and a half-maximal response (EC50) required 0.16 nM.
On the same counts, the results for “I: Ac-A[hArg]DC[Hyp]LVNPLCKHP[dD]W[hArg]C-NH2 / II: Ac-C[tBuAla]PE[dK]PYCFADPY[Nle]CA-NH2 / III: Ac-C[tBuAla]PE[dK]PYCFADPY[Nle]CA-NH2 (linker I:4-I:11-I:18, II:1-II:8-II:15, III:1-III:8-III:15 via TATA; linker I:12-II:5-III:5 via X1) [BCY12976]” are 73.2 and 0.18 nM.

Source of the values: patent US20230129258A1, “HETEROTANDEM BICYCLIC PEPTIDE COMPLEXES” (BicycleTx Limited, priority 2019, published 2023).
